Assay results: patent US9211310B2, “Use of a Chinese medicine composition in preparing medicaments for treating secondary prevention of myocardial infarction” (TASLY PHARMACEUTICAL GROUP CO., LTD, priority 2010, dated 2015)

Test system: patients after acute myocardial infarction
Assay: Life quality, Seattle Angina Questionnaire (SAQ), same clinical trial
Type: in vivo, human
Details: FAS
From the text: 3508 patients who were in accordance with the diagnostic standards of AMI for 28 days to 2 years and differentiated as Qi deficiency and blood stagnation syndrome by TCM were studied. 0.5 g Chinese medicine composition prepared by the method of EXAMPLE 1 (Coded as QSYQ) was administrated half an hour after meal, 3 times per day.
There were 19 questions in the Seattle angina questionnaire (SAQ), including 5 parts: physical limitation (PL), anginal stability (AS), anginal frequency (AF), treatment satisfaction (TS) and disease perception (DP). After being given necessary explanation by doctors, the questions were answered independently by patients.
They included the overall survival time, angina pectoris score, TCM symptom score and life quality score, where angina pectoris score, TCM symptom score and life quality score were evaluated at randomization, in 1st, 3rd, 6th, 9th, 12th month after treatment and 18th month after follow-up.
All evaluation results of SAQ were described during the period of observation, and Wilcoxon rank sum test was used for inter-group comparison.
The evaluation results in the SAQ were depicted in different observations, and inter-group comparison was tested by Wilcoxon Rank-sum test.

CC(=O)Oc1ccccc1C(=O)O [Control group, aspirine]
SAQ 6th question, Mostly satisfied: % of patients (3 months after treatment): (51.83%)
SAQ 6th question, Mostly satisfied: number of patients (3 months after treatment): 904
SAQ 6th question, Partly satisfied: % of patients (3 months after treatment): (25.69%)
SAQ 6th question, Partly satisfied: number of patients (3 months after treatment): 448
SAQ 7th question, Dissatisfied: % of patients (3 months after treatment): (0.11%)
SAQ 7th question, Dissatisfied: number of patients (3 months after treatment): 2
SAQ 7th question, Highly satisfied: % of patients (3 months after treatment): (22.68%)
SAQ 7th question, Highly satisfied: number of patients (3 months after treatment): 395
SAQ 7th question, Mostly dissatisfied: % of patients (3 months after treatment): (1.95%)
SAQ 7th question, Mostly dissatisfied: number of patients (3 months after treatment): 34
SAQ 7th question, Mostly satisfied: % of patients (3 months after treatment): (54.08%)
SAQ 7th question, Mostly satisfied: number of patients (3 months after treatment): 942
SAQ 7th question, Partly satisfied: % of patients (3 months after treatment): (21.18%)
SAQ 7th question, Partly satisfied: number of patients (3 months after treatment): 369
SAQ Question 1-1 Mildly limited, number of patients (3 months after treatment): 26
SAQ Question 1-1 Mildly limited, percent of patients (3 months after treatment): (1.49%)
SAQ Question 1-1 Moderately limited, number of patients (3 months after treatment): 7
SAQ Question 1-1 Moderately limited, percent of patients (3 months after treatment): (0.40%)
SAQ Question 1-1 Not limited, number of patients (3 months after treatment): 1634
SAQ Question 1-1 Not limited, percent of patients (3 months after treatment): (93.69%)
SAQ Question 1-1 Other reasons, number of patients (3 months after treatment): 4
SAQ Question 1-1 Other reasons, percent of patients (3 months after treatment): (0.23%)
SAQ Question 1-1 Severely limited, number of patients (3 months after treatment): 1
SAQ Question 1-1 Severely limited, percent of patients (3 months after treatment): (0.06%)
SAQ Question 1-1 Slightly limited, number of patients (3 months after treatment): 72
SAQ Question 1-1 Slightly limited, percent of patients (3 months after treatment): (4.13%)
SAQ Question 1-2 Mildly limited, number of patients (3 months after treatment): 23
SAQ Question 1-2 Mildly limited, percent of patients (3 months after treatment): (1.32%)
SAQ Question 1-2 Moderately limited, number of patients (3 months after treatment): 10
SAQ Question 1-2 Moderately limited, percent of patients (3 months after treatment): (0.57%)
SAQ Question 1-2 Not limited, number of patients (3 months after treatment): 1603
SAQ Question 1-2 Not limited, percent of patients (3 months after treatment): (91.92%)
SAQ Question 1-2 Other reasons, number of patients (3 months after treatment): 7
SAQ Question 1-2 Other reasons, percent of patients (3 months after treatment): (0.40%)
SAQ Question 1-2 Severely limited, number of patients (3 months after treatment): 0
SAQ Question 1-2 Severely limited, percent of patients (3 months after treatment): (0.00%)
SAQ Question 1-2 Slightly limited, number of patients (3 months after treatment): 101
SAQ Question 1-2 Slightly limited, percent of patients (3 months after treatment): (5.79%)
SAQ Question 1-6: Mildly limited, patients (%) (3 months after treatment): (18.23%)
SAQ Question 1-6: Moderately limited, patients (%) (3 months after treatment): (13.05%)
SAQ Question 1-6: Not limited, patients (%) (3 months after treatment): (31.45%)
SAQ Question 1-6: Other reasons, patients (%) (3 months after treatment): (0.92%)
SAQ Question 1-6: Severely limited, patients (%) (3 months after treatment): (4.14%)
SAQ Question 1-6: Slightly limited, patients (%) (3 months after treatment): (32.20%)
SAQ Question 1-7: Mildly limited, patients (%) (3 months after treatment): (23.77%)
SAQ Question 1-7: Moserately limited, patients (%) (3 months after treatment): (15.07%)
SAQ Question 1-7: Not limited, patients (%) (3 months after treatment): (13.91%)
SAQ Question 1-7: Other reasons, patients (%) (3 months after treatment): (3.01%)
SAQ Question 1-7: Severely limited, patients (%) (3 months after treatment): (15.88%)
SAQ Question 1-7: Slightly limited, patients (%) (3 months after treatment): (28.35%)
SAQ Question 1-8: Mildly limited, patients (%) (3 months after treatment): (25.55%)
SAQ Question 1-8: Moderately limited, patients (%) (3 months after treatment): (17.89%)
SAQ Question 1-8: Not limited, patients (%) (3 months after treatment): (10.69%)
SAQ Question 1-8: Other reasons, patients (%) (3 months after treatment): (3.02%)
SAQ Question 1-8: Severely limieted, patients (%) (3 months after treatment): (21.02%)
SAQ Question 1-8: Slightly limited, patients (%) (3 months after treatment): (21.84%)
8th question: Dissatisfied, patients (%) (6 months after treatment): (0.17%)
8th question: Highly satisfied, patients (%) (6 months after treatment): (20.30%)
8th question: Mostly satisfied, patients (%) (6 months after treatment): (56.59%)
8th question: Partly satisfied, patients (%) (6 months after treatment): (20.70%)
9th question: Few, patients (%) (6 months after treatment): (34.75%)
9th question: Mild, patients (%) (6 months after treatment): (34.63%)
9th question: Severe, patients (%) (6 months after treatment): (0.86%)
9th question: Uneffective, patients (%) (6 months after treatment): (18.12%)
10th question: Dissatisfied, patients (%) (6 months after treatment): (20.87%)
10th question: Highly satisfied, patients (%) (6 months after treatment): (4.64%)
10th question: Mostly dissatisfied, patients (%) (6 months after treatment): (21.56%)
10th question: Mostly satisfied, patients (%) (6 months after treatment): (26.61%)
10th question: Partly satisfied, patients (%) (6 months after treatment): (26.32%)
11th question: Continuously worried, patients (%) (6 months after treatment): (4.42%)
11th question: No worried, patients (%) (6 months after treatment): (4.93%)
11th question: Occasionally worried, patients (%) (6 months after treatment): (41.69%)
11th question: Often worried, patients (%) (6 months after treatment): (14.85%)
11th question: Seldom worried, patients (%) (6 months after treatment): (34.12%)
SAQ 4th question, 1-2 times per week: % of patients (6 months after treatment): (17.55%)
SAQ 4th question, 1-2 times per week: number of patients (6 months after treatment): 306
SAQ 4th question, 1-3 times per day: % of patients (6 months after treatment): (4.70%)
